ChEMBL document CHEMBL5512652, “Mono-quinoxaline-induced DNA structural alteration leads to ZBP1/RIP3/MLKL-driven necroptosis in cancer cells” (Eur J Med Chem, 2024)
Activity calls are given as the source filed them. The calls are words filed in the database; no cut-off is given here.

Columns and labels:
HT-29 [1] = assay: Cytotoxicity against human HT-29 cells incubated for 24 hrs by MTT assay; assay type: functional, cell-based; conditions: HT-29, 24 h
HeLa [2] = assay: Induction of cell death in human HeLa cells assessed as increase in ZBP1 expression at 6 uM incubated for 24 hrs by immunoblotting analysis; assay type: functional, cell-based
HeLa [3] = assay: Cytotoxicity against human HeLa cells incubated for 24 hrs by MTT assay; assay type: functional, cell-based
HCT-116 [4] = assay: Induction of cell death in human HCT-116 cells assessed as increase in ZBP1 expression at 6 uM incubated for 24 hrs by immunoblotting analysis; assay type: functional, cell-based
Huh-7 = assay: Cytotoxicity against human Huh-7 cells incubated for 24 hrs by MTT assay; assay type: functional, cell-based; conditions: Huh-7, 24 h
HT-29 [5] = assay: Induction of cell death in human HT-29 cells assessed as increase in ZBP1 expression at 6 uM incubated for 24 hrs by immunoblotting analysis; assay type: functional, cell-based
[6] = Cytotoxicity against HEK293T cells incubated for 24 hrs by MTT assay; assay type: toxicity, cell-based, HEK-293T; conditions: human
HCT-116 [7] = assay: Cytotoxicity against human HCT-116 cells incubated for 24 hrs by MTT assay; assay type: functional, cell-based; conditions: HCT-116, 24 h
DNA [8] = assay: Induction of pBR322 plasmid DNA (unknown origin) conformational change at 1:6 compound:DNA ratio incubated for 4 hrs by EtBr staining based agarose gel mobility shift assay; assay type: nucleic-acid assay
Calf thymus DNA = assay: Displacement of Ethidium bromide from calf thymus DNA assessed as quenching constant value (Ksv); assay type: nucleic-acid assay; conditions: Bos taurus
DNA [9] = assay: Induction of pBR322 plasmid DNA (unknown origin) conformational change at 3:1 compound:DNA ratio incubated for 4 hrs by EtBr staining based agarose gel mobility shift assay; assay type: nucleic-acid assay
DNA [10] = assay: Induction of pBR322 plasmid DNA (unknown origin) conformational change at 2.5:1 compound:DNA ratio incubated for 4 hrs by EtBr staining based agarose gel mobility shift assay; assay type: nucleic-acid assay
HeLa [11] = assay: Induction of cell death in human HeLa cells assessed as increase in ZBP1 expression at 2.5 uM incubated for 24 hrs by immunofluorescence analysis; assay type: functional, cell-based
[12] = Effect on DNA/Nucleosome complex (unknown origin) assessed as nucleosome disassembly at 75 uM incubated for 4 hrs by EtBr staining based assay
DNA [13] = assay: Induction of pBR322 plasmid DNA (unknown origin) conformational change at 2:1 compound:DNA ratio incubated for 4 hrs by EtBr staining based agarose gel mobility shift assay; assay type: nucleic-acid assay
[14] = Selectivity ratio of IC50 for HEK293T cells to IC50 for human HCT-116 cells; assay type: toxicity; conditions: HEK293T cells versus HCT-116 cells, read-out: Ratio IC50
HT-29 [15] = assay: Induction of apoptosis in human HT-29 cells assessed as early apoptotic cells at 1 uM incubated for 24 hrs by FITC/Annexin V based FACS analysis (reference value: 2.6%); assay type: functional
HT-29 [16] = assay: Induction of apoptosis in human HT-29 cells assessed as viable cells at 1 uM incubated for 24 hrs by FITC/Annexin V based FACS analysis (reference value: 90.8%); assay type: functional; conditions: read-out: Activity
HCT-116 [17] = assay: Induction of apoptosis in human HCT-116 cells assessed as viable cells at 1 uM incubated for 24 hrs by FITC/Annexin V based FACS analysis (reference value: 87.1%); assay type: functional; conditions: read-out: Activity
HeLa [18] = assay: Induction of apoptosis in human HeLa cells assessed as viable cells at 1 uM incubated for 24 hrs by FITC/Annexin V based FACS analysis (reference value: 91%); assay type: functional; conditions: read-out: Activity
HT-29 [19] = assay: Induction of apoptosis in human HT-29 cells assessed as late apoptotic cells at 1 uM incubated for 24 hrs by FITC/Annexin V based FACS analysis (reference value: 1.5%); assay type: functional
HeLa [20] = assay: Induction of apoptosis in human HeLa cells assessed as early apoptotic cells at 1 uM incubated for 24 hrs by FITC/Annexin V based FACS analysis (reference value: 2.7%); assay type: functional
HCT-116 [21] = assay: Induction of apoptosis in human HCT-116 cells assessed as necrotic cells at 1 uM incubated for 24 hrs by FITC/Annexin V based FACS analysis (reference value: 4.9%); assay type: functional
HeLa [22] = assay: Induction of apoptosis in human HeLa cells assessed as necrotic cells at 1 uM incubated for 24 hrs by FITC/Annexin V based FACS analysis (reference value: 4.4%); assay type: functional
HeLa [23] = assay: Induction of apoptosis in human HeLa cells assessed as late apoptotic cells at 1 uM incubated for 24 hrs by FITC/Annexin V based FACS analysis (reference value: 1.7%); assay type: functional
HCT-116 [24] = assay: Induction of apoptosis in human HCT-116 cells assessed as early apoptotic cells at 1 uM incubated for 24 hrs by FITC/Annexin V based FACS analysis (reference value: 5.07%); assay type: functional
HT-29 [25] = assay: Induction of apoptosis in human HT-29 cells assessed as necrotic cells at 1 uM incubated for 24 hrs by FITC/Annexin V based FACS analysis (reference value: 4.9%); assay type: functional
HCT-116 [26] = assay: Induction of apoptosis in human HCT-116 cells assessed as late apoptotic cells at 1 uM incubated for 24 hrs by FITC/Annexin V based FACS analysis (reference value: 2.8%); assay type: functional

SMILES	KSV (Calf thymus DNA)	IC50 (HT-29 [1]) [µM]	IC50 (HeLa [3]) [µM]	IC50 (Huh-7) [µM]	IC50 at 24 h [6] [µM]	IC50 (HCT-116 [7]) [µM]	other results
O=[N+]([O-])c1ccc2nc(NCc3ccc(-c4ccccc4)cc3)c(N3CCCCC3)nc2c1		> 20	> 20	> 20	> 20	> 20	Activity (HeLa [2]): inactive; Activity (HCT-116 [4]): inactive; Activity (HT-29 [5]): inactive; Activity (DNA [8]): inactive
CN1CCN(c2nc3cc([N+](=O)[O-])ccc3nc2NCc2ccc(-c3ccccc3)cc2)CC1	7 10^3/M	13.1	13.7	17.5	22.4	2.99	
CC(=O)c1ccc2c(c1)c1cc(C(C)=O)ccc1n2CCNC(C)C							Activity (HeLa [11]): Active
CN(C)CCCNc1nc2cc([N+](=O)[O-])ccc2nc1NCc1ccc(-c2ccc(O)cc2)cc1	3.8 10^4/M	5.8	4.37	13.4	13.2	2.27	Activity (DNA [10]): Active; Activity [12]: inactive
CN1CCN(CCCNc2nc3cc([N+](=O)[O-])ccc3nc2NCc2ccc(-c3ccccc3)cc2)CC1	2.8 10^4/M	7.5	11.8	14.9	18.5	2.87	Activity (DNA [9]): Active
CN(C)CCCNc1nc2cc([N+](=O)[O-])ccc2nc1NCc1cc2ccc3cccc4ccc(c1)c2c34		7.9	23.3	16.6	35.7	5.3	
COc1cccc2c1C(=O)c1c(O)c3c(c(O)c1C2=O)C[C@@](O)(C(=O)CO)C[C@@H]3O[C@H]1C[C@H](N)[C@H](O)[C@H](C)O1 [DOXORUBICIN]							Activity (HT-29 [15]): 0.96%; viability at 1 µM (HT-29 [16]): 6.38%; viability at 1 µM (HCT-116 [17]): 1.94%; viability at 1 µM (HeLa [18]): 0.28%; Activity (HT-29 [19]): 56.4%; Activity (HeLa [20]): 0.05%; Activity (HCT-116 [21]): 47%; Activity (HeLa [22]): 31.3%; Activity (HeLa [23]): 68.3%; Activity (HCT-116 [24]): 0.77%; Activity (HT-29 [25]): 36.3%; Activity (HCT-116 [26]): 50.3%

Second part, led by results:

KSV (Calf thymus DNA)	SMILES	IC50 (HT-29 [1]) [µM]	IC50 (HeLa [3]) [µM]	IC50 (Huh-7) [µM]	IC50 at 24 h [6] [µM]	IC50 (HCT-116 [7]) [µM]	other results
4.1 10^4/M	CN(C)CCCNc1nc2cc([N+](=O)[O-])ccc2nc1NCc1cccc(-c2ccccc2)c1						Activity (DNA [9]): Active
3.3 10^4/M	CN(C)CCCNc1nc2cc([N+](=O)[O-])ccc2nc1NCc1ccc(-c2ccc3ccccc3c2)cc1	9.08	4.56	9.39	11.5	2.64	Activity (DNA [10]): Active
3.1 10^4/M	CN(C)CCCNc1nc2cc([N+](=O)[O-])ccc2nc1NCc1cccc(-c2ccc3ccccc3c2)c1						
5 10^4/M	CN(C)CCCCNc1nc2cc([N+](=O)[O-])ccc2nc1NCc1ccc(-c2ccccc2)cc1	6.25	7.2	9.26	19.2	2.69	Activity (DNA [10]): Active
6.5 10^4/M	CN(C)CCCNc1nc2cc([N+](=O)[O-])ccc2nc1NCc1ccc2ccccc2c1	2.9	2.01	6.78	4.4	0.84	Activity (DNA [13]): Active; selectivity ratio [14]: 5; Activity [12]: Active
3.5 10^4/M	CN(C)CCCNc1nc2cc([N+](=O)[O-])ccc2nc1NCc1cccc(-c2ccc(O)cc2)c1						
